One data set deals with TEAD3 (Homo sapiens, UniProt Q99594). Put plainly: Thermal shift assay TEAD3. It counts as binding. Summed up:
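TEAD3 protein at 0.1 mg/ml final melted with Protein Thermal Shift dye on a qPCR instrument. Compounds tested at 10 μM and 1 μM in PBS, final DMSO 0.1%.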

The test system of data set [1] is human lung cancer NCI-H226 xenograft. Put plainly: In vivo anti-tumor efficacy, NCI-H226 xenograft model (TGI). More on the design: species or system BALB/c Nude mice. The settings on record: QD, oral, tumor volume at day 21. The method, then: (§1) Example D: In Vivo Pharmacodynamic and Efficacy Study
(§2) The objective of the research is to evaluate the in vivo anti-tumor efficacy of Example 58b, 64, 75a in human lung cancer NCI-H226 xenograft model in BALB/c Nude mice. (Jiangsu GemPharmatech Co., Ltd, female, 6-9 weeks)
(§3) The NCI-H226 cancer cells was maintained in vitro with RPMI1640 medium supplemented with 10% fetal bovine serum at 37° C. in an atmosphere of 5% CO2 in the air. The cells in exponential growth phase will be harvested and quantitated by cell counter before tumor inoculation. Each mouse was inoculated subcutaneously it the right front flank region with NCI-H226 tumor cells (lx 107) in 0.2 ml of PBS mixed with Matrigel (1:1) for tumor development. Animals were randomized when the average tumor volume reached 150-200 mm^3. The test article was administered to the mice orally once a day from the day of grouping, total 21 days (QD×21 Days). Body weight change of animals was monitored regularly as an indicator of drug safety. The major endpoint was to see if the tumor growth could be delayed or mice could be cured. Tumor sizes were measured two times per week in two dimensions using a caliper, and the volume were expressed in mm^3 using the formula: V=0.5a×b^2 where a and b are the long and short diameters of the tumor, respectively.
(§4) The tumor volume were then used for the calculations of TGI. TGI is calculated for each group using the formula: TGI (%)=[1−(Ti−T0)/(Ci−C0)]×100; Ti is the average tumor volume of a treatment group on a given day, T0 is the average tumor volume of the treatment group on the first day of treatment, Ci is the average tumor volume of the vehicle control group on the same day with Ti, and C0 is the average tumor volume of the vehicle group on the first day of treatment. To compare tumor volumes of different groups at a pre-specified day, Bartlett's test was used to check the assumption of homogeneity of variance across all groups.

A short description of data set [2]: Pharmacokinetic profile evaluation in mice. The format is in vivo, CD-1 mice. The note with it: CD-1; mouse, oral administration at 10 mg/kg, plasma. The procedure: Example C: Pharmacokinetic Profile Evaluation
Three CD-1 mice of SPF. (Sino-British SIPPR/BK Lab Animal Ltd, Shanghai.) were intravenously administrated with given compounds (Formulation: 5% DMSO+10% Solutol+85% Saline) or orally gavage administrated with given compounds (Formulation: 5% DMSO+10% Solutol+85% Saline). The blood samples were taken via cephalic vein at timepoints 0.083 h, 0.25 h, 0.5 h, 1 h, 2 h, 4 h, 8 h, and 24 h after intravenous (iv) administration or at timepoints 0.25 h, 0.5 h, 1 h, 2 h, 4 h, 6 h, 8 h, and 24 h after oral gavage administration, 30 μL/time point. Blood samples were placed in tubes containing K2-EDTA and stored on ice until centrifuged. The blood samples were centrifuged at 6800 g for 6 minutes at 2-8° C. within 1 h after collected and stored frozen at approximately −80° C. An aliquot of 20 μL plasma samples were protein precipitated with 400 μL MeOH in which contains 100 ng/mL Verapamil (IS). The mixture was vortexed for 1 min and centrifuged at 18000 g for 10 min. Transfer 400 μL supernatant to 96 well plates. An aliquot of 5 μL supernatant was injected for LC-MS/MS analysis by LC-MS/MS-27 (TQ6500+) instrument. The analytical results were confirmed using quality control samples for intra-assay variation. The accuracy of >66.7% of the quality control samples should be between 80-120% of the known value(s). Standard set of parameters including Area Under the Curve (AUC(0-t)), maximum plasma concentration (Cmax), elimination half-life (T1/2) will be calculated using noncompartmental analysis modules in FDA certified pharmacokinetic program Phoenix WinNonlin 7.0 (Pharsight, USA).

A further data set addresses TEAD1 (Homo sapiens, UniProt P28347). Put plainly: Thermal shift assay TEAD1. It counts as binding. Summed up:
(§5)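 Compounds tested at 10 μM and 1 μM, 0.1% DMSO final, with TEAD1 at 0.2 mg/ml or TEAD2 at 0.08 mg/ml final. Melting monitored with Protein Thermal Shift dye on a qPCR instrument.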

A further data set deals with TEAD2 (Homo sapiens, UniProt Q15562). Put plainly: Thermal shift assay TEAD2. It counts as binding. Summed up: as §5
A short description of data set [3]: Body weight change in NCI-H226 xenograft study. The note with it: QD, oral, day 21 compared to day 1. It counts as in vivo, BALB/c Nude mice. The procedure: as §1, §2, §3, §4
A further data set addresses TEAD4 (Homo sapiens, UniProt Q15561). Put plainly: Thermal shift assay TEAD4. The format is binding. Summed up:
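Protein thermal shift with TEAD4 at 0.1 mg/ml final, Protein Thermal Shift dye, compounds at 10 μM or 1 μM in PBS with 0.1% DMSO final. Melt reactions assembled on ice and run on a qPCR instrument.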

Another data set concerns NCI-H226 cells. Briefly: Cell growth assay (CellTiter-Glo). The format is cell-based, human. The settings on record: Homo sapiens, NCI-H226, 168 h, 7 days treatment, CellTiter-Glo luminescence, read-out: H226 CTG IC50. On the technique in general: Cellular ATP, detected with luciferase, serves as a proxy for viable cell number.

One may read the AUC(0-t) as the area under the concentration-time curve up to a stated or last time point. High values mean more exposure, low ones less exposure. In general, Cmax refers to the maximum level reached in the sampled fluid or tissue. The term half-life denotes the time in which the quantity being followed falls by half. The IC50 is the concentration at which inhibition is half-maximal.

Where only a bound is given, the exact number is not on record here.

Chain of TEAD4 (Q15561 whole entry, species assumed): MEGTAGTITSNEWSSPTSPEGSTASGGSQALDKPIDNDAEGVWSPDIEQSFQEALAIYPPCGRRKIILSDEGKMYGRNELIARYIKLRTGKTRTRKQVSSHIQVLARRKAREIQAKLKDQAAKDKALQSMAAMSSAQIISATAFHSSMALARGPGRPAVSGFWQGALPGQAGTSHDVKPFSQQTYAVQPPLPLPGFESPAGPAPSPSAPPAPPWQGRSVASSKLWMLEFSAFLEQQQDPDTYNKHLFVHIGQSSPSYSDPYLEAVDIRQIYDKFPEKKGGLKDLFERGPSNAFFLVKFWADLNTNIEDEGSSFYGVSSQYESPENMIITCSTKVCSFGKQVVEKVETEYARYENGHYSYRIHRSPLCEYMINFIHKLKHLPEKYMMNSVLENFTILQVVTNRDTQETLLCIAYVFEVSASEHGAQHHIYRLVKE
Chain of TEAD2 (Q15562 whole entry, species assumed): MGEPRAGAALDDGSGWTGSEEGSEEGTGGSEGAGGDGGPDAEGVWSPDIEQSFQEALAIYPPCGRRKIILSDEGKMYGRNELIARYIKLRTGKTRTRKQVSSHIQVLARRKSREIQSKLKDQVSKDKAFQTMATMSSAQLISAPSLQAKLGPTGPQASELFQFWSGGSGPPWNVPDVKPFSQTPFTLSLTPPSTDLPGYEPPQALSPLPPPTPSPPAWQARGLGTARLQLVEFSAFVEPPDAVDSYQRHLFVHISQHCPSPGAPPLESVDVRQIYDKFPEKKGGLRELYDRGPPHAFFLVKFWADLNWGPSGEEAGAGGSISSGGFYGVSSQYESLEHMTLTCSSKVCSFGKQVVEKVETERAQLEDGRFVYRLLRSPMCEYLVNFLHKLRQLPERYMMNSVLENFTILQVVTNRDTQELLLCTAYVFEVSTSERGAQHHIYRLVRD
Chain of TEAD1 (P28347 whole entry, species assumed): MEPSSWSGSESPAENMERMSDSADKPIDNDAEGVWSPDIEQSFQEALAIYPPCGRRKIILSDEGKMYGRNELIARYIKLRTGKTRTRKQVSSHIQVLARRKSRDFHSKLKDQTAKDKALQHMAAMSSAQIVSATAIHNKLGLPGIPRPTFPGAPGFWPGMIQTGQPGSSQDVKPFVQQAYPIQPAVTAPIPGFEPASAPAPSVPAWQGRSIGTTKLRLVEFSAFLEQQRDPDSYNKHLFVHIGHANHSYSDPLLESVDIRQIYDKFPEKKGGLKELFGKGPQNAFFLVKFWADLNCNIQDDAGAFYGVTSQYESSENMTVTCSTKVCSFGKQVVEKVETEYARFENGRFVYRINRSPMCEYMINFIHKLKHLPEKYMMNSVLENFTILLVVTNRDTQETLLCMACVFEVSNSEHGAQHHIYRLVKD
Chain of TEAD3 (Q99594 whole entry, species assumed): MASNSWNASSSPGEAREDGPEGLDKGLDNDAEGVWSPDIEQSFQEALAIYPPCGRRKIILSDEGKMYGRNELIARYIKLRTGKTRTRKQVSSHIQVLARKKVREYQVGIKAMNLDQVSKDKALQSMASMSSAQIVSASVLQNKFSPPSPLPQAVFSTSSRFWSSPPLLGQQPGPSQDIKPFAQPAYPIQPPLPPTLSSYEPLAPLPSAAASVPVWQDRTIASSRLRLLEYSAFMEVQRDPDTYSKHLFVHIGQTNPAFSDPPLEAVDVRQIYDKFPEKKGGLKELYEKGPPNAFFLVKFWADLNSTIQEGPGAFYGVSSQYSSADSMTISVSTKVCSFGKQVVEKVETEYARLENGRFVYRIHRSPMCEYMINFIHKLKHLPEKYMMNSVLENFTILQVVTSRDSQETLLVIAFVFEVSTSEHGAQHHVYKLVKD

For the compound `Cn1cc2cc(Oc3ccc(C(F)(F)F)cc3)cc([C@H]3C[C@@H]3C(=O)N3CC(O)C3)c2n1` (single isomer, unassigned) [Example 58b], the “TEAD3 ΔTm” value on TEAD3 turned out to be 10.9 °C. Besides, the TGI amounted to 95% in data set [1] (1 mg/kg), 103% in data set [1] (3 mg/kg), 128% in data set [1] (10 mg/kg) and 145% in data set [1] (30 mg/kg). Moreover, in data set [2], the AUC(0-t) was determined as 17200 ng·h/mL. In data set [2], this compound gave a Cmax of 1710 ng/mL. The compound also gave a half-life in data set [2] of 3.6 h. Further, on TEAD1, the “TEAD1 ΔTm” value came to 9.2 °C. Further, on TEAD2, the “TEAD2 ΔTm” value is 12.9 °C. Also, the Body weight change result in data set [3] (1 mg/kg) is recorded as “+8.2%”; in data set [3] (3 mg/kg), “+4.0%”; in data set [3] (10 mg/kg) it was “+1.6%”; in data set [3] (30 mg/kg) it was “+2.9%”. Further, at TEAD4, the “TEAD4 ΔTm” value worked out at 11.3 °C. Moreover, the IC50 in the data set on NCI-H226 cells is less than 100 nM.

As for `Cn1cc2cc(Oc3ccc(C(F)(F)F)cc3)cc([C@@H]3C[C@H]3C(=O)N3CC[C@H](O)[C@@H](O)C3)c2n1` (single isomer, unassigned) [Example 75a], the “TEAD3 ΔTm” value at TEAD3 was found to be 10.0 °C. Besides, the TGI in data set [1] (3 mg/kg) was 90%; in data set [1] (10 mg/kg) it was 119%; in data set [1] (30 mg/kg), 150%; in data set [1] (60 mg/kg) it was 149%. This compound came in with an AUC(0-t) in data set [2] of 10700 ng·h/mL. This compound had a Cmax in data set [2] of 1650 ng/mL. For the same compound, the half-life in data set [2] was 2.3 h. Also, the “TEAD1 ΔTm” value on TEAD1 is 9.0 °C. For the same compound, the “TEAD2 ΔTm” value at TEAD2 stood at 12.2 °C. Moreover, the Body weight change entry in data set [3] (3 mg/kg) was “+6.7%”; in data set [3] (10 mg/kg), “+3.0%”; in data set [3] (30 mg/kg), “+4.0%”; in data set [3] (60 mg/kg) it was “+1.5%”. In addition, the “TEAD4 ΔTm” value at TEAD4 was 11.3 °C. Also, the IC50 in the data set on NCI-H226 cells was less than 100 nM.

The values above are taken from US12103915B2, “TEAD inhibitors and methods of uses thereof” (Insilico Medicine IP Limited, priority 2022, dated 2024).
